Here are results for one molecule from US11767316B2, “Non-fused thiophene derivatives and their uses” (ENYO PHARMA, priority 2018, dated 2023).

The test system of experiment [1] is MAXF 401. Description: Cytotoxicity, propidium iodide based monolayer assay, MAXF 401. Type of experiment: cell-based. The conditions noted are these: Homo sapiens, MAXF401, 96 h; MAXF 401 (breast adeno carcinoma), four days of treatment, T/C=50%; read-out: Absolute IC50. On the procedure: The cytotoxicity was tested for compounds of the invention on five different cell-lines, namely LXFL 1121, MAXF 401, MMXF L-636, PRXF PC-3M and UXF 1138 which are respectively lung large cell carcinoma, breast adeno carcinoma, multiple myeloma, prostate adeno carcinoma and uterine sarcoma.
A working stock solution of the test compounds was prepared in DMSO at a concentration of 33 mM or 8.25 mM, and small aliquots were stored at −20° C. On each day of an experiment, a frozen aliquot of the working stock solution was thawed and stored at room temperature prior to and during treatment.
All liquid handling steps were performed using the Tecan Freedom EVO 200 platform. First, serial 2-fold dilutions of the 33 mM DMSO working stock solution were done in DMSO. […]
A modified propidium iodide (PI) based monolayer assay was used to assess the anti-cancer activity of the compounds. Briefly, cells were harvested from exponential phase cultures, counted and plated in 96 well flat-bottom microtiter plates at a cell density of 4,000 to 40,000 cells/well dependent on the cell line's growth rate. […] After an incubation period of 1-2 hours at room temperature, fluorescence (FU) was measured using the Enspire Multimode Plate Reader (excitation λ=530 nm, emission λ=620 nm) to quantify the amount of attached viable cells. […]

For experiment [2], the target named is T1, CISD2 Gene Product (NAF-1) (Homo sapiens, UniProt Q8N5K1).
T1 sequence (Q8N5K1 57-135 limits assumed): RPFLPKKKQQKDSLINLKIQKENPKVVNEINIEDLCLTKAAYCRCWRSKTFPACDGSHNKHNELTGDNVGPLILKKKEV
Description: Stability of Fe-S cluster binding of purified NEET protein (absorbance 458 nm), NAF-1. It is filed as biochemical. On the procedure: The modulator effect on the NEET proteins encoded by human CISD1, CISD2, and CISD3 genes by the compounds of the invention has been tested and is reported below. Particularly, the biochemical function of the NEET proteins is measured by the stability of Fe—S cluster binding of the purified NEET proteins.
The Fe—S cluster binding capacity of NEET proteins is known to be coordinated by four amino-acids in a stretch of 16 (three Cysteine and one Histidine). As the lability of the Fe—S cluster of NEET proteins is sensitive to the environment, cluster stability measurements are one of the measures of interactions of NEET proteins with small molecules and compounds. NEET protein/2Fe-2S cluster stability can be assessed by monitoring the decay in absorbance of its characteristic 458-nm peak (characteristic of the oxidized 2Fe-2S cluster) over time. Each NEET protein (mitoNEET, NAF-1 and Miner 2) was tested for its Fe—S binding in the absence or presence of a compound according to the invention (see table 3 below). […]
At pH 6, all the three NEET proteins (mitoNEET, NAF-1 and Miner 2) have a characteristic rate of loss of the bound Fe—S cluster that can be measured by the decrease of absorbance at wavelength 458 nm over time, using a spectrophotometer. […]
A reaction mix containing DMSO diluted in the Bis-Tris Buffer with or without a compound of the invention was prepared. […] The absorbance at wavelength 458 nm was taken at 5 minutes intervals at 37° C. with a spectrofluorimeter. […]
In addition to time monitoring, residual bound Fe—S cluster to NEET protein was measured at the final point of the spectrometry assay for each Test sample and compared to the Control sample data (in parenthesis table 3). This residual binding is measured by the differential percentage between the absorbance 458 nm at time zero and the absorbance 458 nm at the end of the experiment (i.e. respectively 500 or 180 minutes as described hereabove), showing the percentage of NEET protein still able to bind a Fe—S cluster. […]

SMILES strings stand for the structures.

As a reminder, the IC50 is the concentration at which inhibition is half-maximal.

In the case of `O=C(Nc1scc(C2CCc3ccccc3C2)c1C(=O)O)c1ccccc1` (stereo not shown) [#16], in experiment [1], the IC50 worked out at 507 nM. In experiment [2] (NAF-1 20 μM, compound 60 μM, pH 6, 37° C., vehicle control 310), the “Time (in minutes) to achieve 50% loss of bound cluster (Absorbance 458 nm)” value is recorded as 35 (310) minutes. Also, the “Residual cluster bound at end of experiment (Percentage Absorbance 458 nm at time zero)” value in experiment [2] (NAF-1, end of experiment 500 minutes, compound 60 μM, pH 6, vehicle control 3%) is on record as 4% (3%). Further, the “Stabiliser or destabiliser of NEET protein/Fe-S cluster binding” value in experiment [2] (NAF-1, destabiliser = time to 50% cluster loss decreased by more than 25% vs control) is “destabilisers”.
